The values that follow come from patent US20120015907A1, “Furopyridine compounds and uses thereof” (NOVARTIS AG, priority 2010, published 2012).

The target of experiment [1] is T1, HCV polymerase (Hepatitis C virus genotype 1b, UniProt Q9WMX2).
T1 construct: (His)6 (C)
Kind of experiment: biochemical. The settings on record: polymerase assay of Biological Example 1; read-out: NS5B polymerase IC50.

The test system of experiment [2] is HCV replicon I389luc-ubi-neo/NS3-3'/ET in ET (Huh-lucubineo-ET) cells. Kind of experiment: Replicon assay (Biological Example 2), luciferase read-out. The settings on record: Hepatitis C virus, luciferase activity 48 hours after compound addition. Format: cell-based. How it is done: A cell line, ET (Huh-lucubineo-ET) is used for screening of compounds for inhibiting HCV RNA dependent RNA polymerase. The ET cell line is stably transfected with RNA transcripts harboring a I389luc-ubi-neo/NS3-3′/ET; replicon with firefly luciferase-ubiquitin-neomycin phosphotransferase fusion protein and EMCV-IRES driven NS3-5B polyprotein containing the cell culture adaptive mutations (E1202G; […]; K1846T) (Krieger at al, 2001 and unpublished). The ET cells are grown in DMEM (Dulbeco's Modified Eagle's Medium), supplemented with 10% fetal calf serum, 2 mM Glutamine, Penicillin (100 IU/mL)/Streptomycin (100 μg/mL), 1× nonessential amino acids, and 250 μg/mL G418 (“Geneticin”). Reagents are all available through Life Technologies (Bethesda, Md.). The cells are plated at 0.5-1.0×10^4 cells/well in the 96 well plates and incubated for 24 hrs before adding test compound. The compounds are added to the cells to achieve a final concentration of 0.1 nM to 50 μM and a final DMSO (dimethylsulfoxide) concentration of 0.5%. Luciferase activity is measured 48 hours later by adding a lysis buffer and the substrate (Catalog number Glo-lysis buffer E2661 and Bright-Glo luciferase system E2620 Promega, Madison, Wis.). Cells should not be too confluent during the assay. Percent inhibition of replication data is plotted relative to no compound control. To determine the EC50 (effective concentration at which 50% of the maximum inhibition is observed), a 10 point, 3-fold serial dilution for each compound is used, which spans a concentration range of 1000 fold. EC50 values were calculated by fitting % inhibition at each concentration to the following equation:
% inhibition=100%/[(EC50/[I])^b+1]
where b is Hill's coefficient.
On the technique in general: In antiviral work, replicon cells carry a viral genome segment that copies itself.

With `CNC(=O)c1c(-c2ccc(F)cc2)oc2nc(N(CCCC3CCCS3(=O)=O)S(C)(=O)=O)c(I)cc12` (stereo not drawn) [Example 18.97, 6-{[3-(1,1-Dioxo-tetrahydrothiophen-2-yl)-propyl]-methanesulfonyl-amino}-2-(4-fluoro-phenyl)-5-iodo-furo[2,3-b]pyridine-3-carboxylic acid methylamide], the IC50 in experiment [1] was 32 nM; in experiment [2], at most 100 nM.

In the case of `CNC(=O)c1c(-c2ccc(F)cc2)oc2nc(N(CCC(C)S(C)(=O)=O)S(C)(=O)=O)c(C3CC3)cc12` (stereo not drawn) [Example 26.6, 5-cyclopropyl-2-(4-fluorophenyl)-N-methyl-6-(N-(3-(methylsulfonyl)butyl)methylsulfonamido)furo[2,3-b]pyridine-3-carboxamide], the IC50 in experiment [1] is 4 nM; in experiment [2], at most 100 nM.

`CNC(=O)c1c(-c2ccc(C3CC3)cc2)oc2nc(N(CCCS(C)(=O)=O)S(C)(=O)=O)c(C3CC3)cc12` [Example 24.9, 5-cyclopropyl-2-(4-cyclopropylphenyl)-N-methyl-6-(N-(3-(methylsulfonyl)propyl)methylsulfonamido)furo[2,3-b]pyridine-3-carboxamide]: the IC50 in experiment [1] is 3 nM; in experiment [2], at most 100 nM.

With `CNC(=O)c1c(-c2ccc(C)cc2)oc2nc(N(CCCCS(C)(=O)=O)S(C)(=O)=O)c(C3CC3)cc12` [Example 25.6, 5-cyclopropyl-N-methyl-6-(N-(4-(methylsulfonyl)butyl)methylsulfonamido)-2-p-tolylfuro[2,3-b]pyridine-3-carboxamide], the IC50 in experiment [1] is 2 nM; in experiment [2], at most 100 nM.

As to `CNC(=O)c1c(-c2ccc(F)cc2)oc2nc(N(CCCC3CCCS3(=O)=O)S(C)(=O)=O)c(C3CC3)cc12` (single isomer, unassigned) [Example 24.5, 5-Cyclopropyl-6-{[3-(1,1-dioxo-tetrahydrothiophen-2-yl)-propyI]-methanesulfonyl-amino}-2-(4-fluoro-phenyl)-furo[2,3-b]pyridine-3-carboxylic acid methylamide], the values for the IC50 in experiment [1] and in experiment [2] were 1 nM and at most 100 nM, respectively.

Regarding `CNC(=O)c1c(-c2ccc(C3CC3)cc2)oc2nc(N(CCCC3CCCS3(=O)=O)S(C)(=O)=O)c(C3CC3)cc12` (stereo not drawn) [Example 25.4, 5-Cyclopropyl-2-(4-cyclopropyl-phenyl)-6-{[3-(1,1-dioxo-tetrahydro-thiophen-2-yl)-propyl]-methanesulfonyl-amino}-furo[2,3-b]pyridine-3-carboxylic acid methylamide], the IC50 in experiment [1] was 1 nM; in experiment [2] it was at most 100 nM.

For `CNC(=O)c1c(-c2ccc(F)cc2)oc2nc(N(C)S(C)(=O)=O)c(CCCC(=O)NS(C)(=O)=O)cc12` [Example 4.5, 2-(4-fluorophenyl)-N-methyl-6-(N-methylmethylsulfonamido)-5-(4-(methylsulfonamido)-4-oxobutyl)furo[2,3-b]pyridine-3-carboxamide], the IC50 in experiment [1] was 206 nM; in experiment [2], at least 5000 nM.

For the compound `CNC(=O)c1c(-c2ccc(Cl)cc2)oc2nc(N(CCCC3CCCS3(=O)=O)S(C)(=O)=O)c(I)cc12` (stereo not drawn) [Example 18.98, 2-(4-Chloro-phenyl)-6-{[3-(1,1-dioxo-tetrahydrothiophen-2-yl)-propyl]-methanesulfonyl-amino}-5-iodo-furo[2,3-b]pyridine-3-carobxylic acid methylamide], the IC50 was 4 nM in experiment [1] and at most 100 nM in experiment [2].

As for `CNC(=O)c1c(-c2ccc(F)cc2)oc2nc(N(CCCCS(C)(=O)=O)S(C)(=O)=O)c(C3CC3)cc12` [Example 25.7, 5-cyclopropyl-2-(4-fluorophenyl)-N-methyl-6-(N-(4-(methylsulfonyl)butyl)methylsulfonamido)furo[2,3-b]pyridine-3-carboxamide], the figures for the IC50 in experiment [1] and in experiment [2] were 1 nM and at most 100 nM, respectively.

For the compound `C=Cc1cc2c(C(=O)NC)c(-c3ccc(F)cc3)oc2nc1N(CCCC(=O)OC)S(C)(=O)=O` [Example 24.2, methyl 4-(N-(2-(4-fluorophenyl)-3-(methylcarbamoyl)-5-vinylfuro[2,3-b]pyridin-6-yl)methylsulfonamido) butanoate], the IC50 in experiment [1] was 42 nM; in experiment [2], at most 100 nM.

On to `CNC(=O)c1c(-c2ccc(F)cc2)oc2nc(N(CCO)S(C)(=O)=O)c(C3CC3)cc12` [Example 2.2, 5-cyclopropyl-2-(4-fluorophenyl)-6-(N-(2-hydroxyethyl)methylsulfonamido)-N-methylfuro[2,3-b]pyridine-3-carboxamide], for which the IC50 was 54 nM in experiment [1] and at most 100 nM in experiment [2].

As to `CNC(=O)c1c(-c2ccc(F)cc2)oc2nc(N(CCCOCCOC)S(C)(=O)=O)c(C3CC3)cc12` [Example 25, 5-cyclopropyl-2-(4-fluorophenyl)-6-(N-(3-(2-methoxyethoxy)propyl)methylsulfonamido)-N-methylfuro[2,3-b]pyridine-3-carboxamide], the IC50 was 5 nM in experiment [1] and at most 100 nM in experiment [2].

For the compound `CNC(=O)c1c(-c2ccc(F)cc2)oc2nc(N(CCCC(C)O)S(C)(=O)=O)c(C3CC3)cc12` (stereo not drawn) [Example 26.4, 5-cyclopropyl-2-(4-fluorophenyl)-6-(N-(4-hydroxypentyl)methylsulfonamido)-N-methylfuro[2,3-b]pyridine-3-carboxamide], the IC50 in experiment [1] was 5 nM; in experiment [2] it was at most 100 nM.

For the compound `CNC(=O)c1c(-c2ccc(C3CC3)cc2)oc2nc(N(CCCCC(=O)O)S(C)(=O)=O)c(C3CC3)cc12` [Example 27.7, 5-(N-(5-cyclopropyl-2-(4-cyclopropylphenyl)-3-(methylcarbamoyl)furo[2,3-b]pyridin-6-yl)methylsulfonamido) pentanoic acid], the IC50 was 1 nM in experiment [1] and at most 100 nM in experiment [2].

For the compound `CNC(=O)c1c(-c2ccc(C)cc2)oc2nc(N(CCCS(C)(=O)=O)S(C)(=O)=O)c(C3CC3)cc12` [Example 25.3, 5-cyclopropyl-N-methyl-6-(N-(3-(methylsulfonyl)propyl)methylsulfonamido)-2-p-tolylfuro[2,3-b]pyridine-3-carboxamide], the IC50 in experiment [1] is 1 nM; in experiment [2], at most 100 nM.

For the compound `CCc1ccc(-c2oc3nc(N(C)S(C)(=O)=O)c(C4CC4)cc3c2C(=O)NC)cc1` [Example 2.94, 5-cyclopropyl-2-(4-ethylphenyl)-N-methyl-6-(N-methylmethylsulfonamido)furo[2,3-b]pyridine-3-carboxamide], the IC50 in experiment [1] was 3 nM; in experiment [2], at most 100 nM.

In the case of `C=Cc1cc2c(C(=O)NC)c(-c3ccc(F)cc3)oc2nc1N(CCCCC(=O)OC)S(C)(=O)=O` [Example 24.3, methyl 5-(N-(2-(4-fluorophenyl)-3-(methylcarbamoyl)-5-vinylfuro[2,3-b]pyridin-6-yl)methylsulfonamido) pentanoate], the IC50 in experiment [1] was 57 nM; in experiment [2] it was at most 100 nM.

For `CCc1cc2c(C(=O)NC)c(-c3ccc(F)cc3)oc2nc1N(CCCC(C)=O)S(C)(=O)=O` [Example 22.95, 5-ethyl-2-(4-fluorophenyl)-N-methyl-6-(N-(4-oxopentyl)methylsulfonamido)furo[2,3-b]pyridine-3-carboxamide], the IC50 in experiment [1] was 40 nM; in experiment [2], at most 100 nM.

The term IC50 denotes the concentration needed to halve the response being measured.
